# Reference: ChEMBL document CHEMBL5385930, “Synthesis, Structure-Activity Relationship Study, Bioactivity, and Nephrotoxicity Evaluation of the Proposed Structure of the Cyclic Lipodepsipeptide Brevicidine B” (J Nat Prod, 2024)
# Positions of bridges follow the written chain, without caps; N, C: chain ends. Non-standard residues stand in square brackets, D forms with d. Residues, ends and D or L forms follow the SMILES beside them. ξ: configuration not given here. *: point of attachment. Hexanoyl(4ξ-Me) = CCC(C)CCC(=O)*; dOrn = NCCC[C@@H](N)C(=O)O; Orn = NCCC[C@H](N)C(=O)O
# Legend:
# [1] = Nephrotoxicity in human Kidney organoid assessed as deterioration of renal tubule measured after 48 hrs by bright field imaging analysis; assay type: toxicity, tissue-based; details: dose 100-1000 µM
# [2] = Nephrotoxicity in human Kidney organoid assessed as at 300 uM measured after 48 hrs by bright field imaging analysis; assay type: toxicity, tissue-based
# [3] = tested on: Staphylococcus aureus; assay: Antibacterial activity against methicillin-resistant Staphylococcus aureus […] assessed as reduction in bacterial growth by microbroth dilution assay; assay type: functional
# [4] = tested on: Klebsiella pneumoniae; assay: Antibacterial activity against pandrug-resistant Klebsiella pneumoniae MS6671 assessed as reduction in bacterial growth by microbroth dilution assay; assay type: functional
# [5] = tested on: Acinetobacter baumannii; assay: Antibacterial activity against Acinetobacter baumannii ATCC 19606 assessed as reduction in bacterial growth by microbroth dilution assay; assay type: functional
# [6] = tested on: Klebsiella pneumoniae; assay: Antibacterial activity against Klebsiella pneumoniae ATCC 33495 assessed as reduction in bacterial growth by microbroth dilution assay; assay type: functional
# [7] = tested on: Pseudomonas aeruginosa; assay: Antibacterial activity against Pseudomonas aeruginosa ATCC 27853 assessed as reduction in bacterial growth by microbroth dilution assay; assay type: functional
# [8] = tested on: Escherichia coli; assay: Antibacterial activity against multidrug resistant Escherichia coli MS834 harbouring mcr-1 assessed as reduction in bacterial growth by microbroth dilution assay; assay type: functional
# [9] = Nephrotoxicity in human Kidney organoid assessed as at 100 uM measured after 48 hrs by bright field imaging analysis; assay type: toxicity, tissue-based
# [10] = tested on: Escherichia coli; assay: Antibacterial activity against Escherichia coli ATCC 25922 assessed as reduction in bacterial growth by microbroth dilution assay; assay type: functional
# [11] = tested on: Klebsiella pneumoniae; assay: Antibacterial activity against Klebsiella pneumoniae ATCC 700603 assessed as reduction in bacterial growth by microbroth dilution assay; assay type: functional
# [12] = tested on: Staphylococcus aureus; assay: Antibacterial activity against Staphylococcus aureus ATCC 25923 assessed as reduction in bacterial growth by microbroth dilution assay; assay type: functional
# [13] = tested on: Enterococcus faecalis; assay: Antibacterial activity against vancomycin resistant Enterococcus faecalis V583 assessed as reduction in bacterial growth by microbroth dilution assay; assay type: functional
# [14] = tested on: Acinetobacter baumannii; assay: Antibacterial activity against multidrug resistant Acinetobacter baumannii AB5075 assessed as reduction in bacterial growth by microbroth dilution assay; assay type: functional
# [15] = tested on: Staphylococcus aureus; assay: Antibacterial activity against methicillin-resistant Staphylococcus aureus RA120 assessed as reduction in bacterial growth by microbroth dilution assay; assay type: functional
# [16] = tested on: Staphylococcus aureus; assay: Antibacterial activity against methicillin-resistant Staphylococcus aureus NCTC1044 assessed as reduction in bacterial growth by microbroth dilution assay; assay type: functional
# [17] = tested on: Staphylococcus aureus; assay: Antibacterial activity against methicillin-resistant Staphylococcus aureus EMRSA-15 assessed as reduction in bacterial growth by microbroth dilution assay; assay type: functional
Compound,Activity [1],Activity [2],MIC [3] [µg/mL],MIC [4] [µg/mL],MIC [5] [µg/mL],MIC [6] [µg/mL],MIC [7] [µg/mL],MIC [8] [µg/mL],Activity [9],MIC [10] [µg/mL],MIC [11] [µg/mL],MIC [12] [µg/mL],MIC [13] [µg/mL],MIC [14] [µg/mL],MIC [15] [µg/mL],MIC [16] [µg/mL],MIC [17] [µg/mL]
POLYMYXIN B [listing 1 of 2 here],Dose-Dependent Effect,Toxic,–,–,–,–,–,–,–,–,–,–,–,–,–,–,–
CCC(C)CCC(=O)N[C@H](CC(N)=O)C(=O)N[C@H](Cc1ccc(O)cc1)C(=O)N[C@H](Cc1c[nH]c2ccccc12)C(=O)N[C@H](CCCN)C(=O)N[C@@H](CCCN)C(=O)NCC(=O)N[C@H](CCCN)C(=O)N[C@@H](Cc1c[nH]c2ccccc12)C(=O)N[C@@H]1C(=O)N[C@@H]([C@@H](C)CC)C(=O)NCC(=O)N[C@@H](CO)C(=O)O[C@@H]1C (some centres not stated) ({Hexanoyl(4ξ-Me)}-[dN][dY][dW][dOrn][Orn]G[dOrn]WTIGS; ester 9-C),Dose-Dependent Effect,Toxic,> 32,16,16,2,4,4,Non-Toxic,4,8,> 32,> 32,16,–,–,–
CCC(C)CCC(=O)N[C@H](CC(N)=O)C(=O)N[C@H](Cc1c[nH]cn1)C(=O)N[C@H](Cc1c[nH]c2ccccc12)C(=O)N[C@H](CCCN)C(=O)N[C@@H](CCCN)C(=O)NCC(=O)N[C@H](CCCN)C(=O)N[C@@H](Cc1c[nH]c2ccccc12)C(=O)N[C@@H]1C(=O)N[C@@H]([C@@H](C)CC)C(=O)NCC(=O)N[C@@H](CO)C(=O)O[C@@H]1C (some centres not stated),–,–,> 32,> 32,> 32,> 32,> 32,> 32,–,> 32,> 32,> 32,> 32,> 32,–,–,–
C[C@@H](O)[C@H]1C(=O)N2C(C(=O)O)=C(S[C@@H]3CN[C@H](C(=O)N(C)C)C3)[C@H](C)[C@H]12 [MEROPENEM],–,–,–,32,0.5,0.062,0.25,0.062,–,0.031,0.062,–,–,32,–,–,–
COLISTIN,–,–,–,32,0.5,0.25,1,4,–,0.125,0.25,–,–,1,–,–,–
CC1(C)S[C@@H]2[C@H](NC(=O)[C@H](N)c3ccc(O)cc3)C(=O)N2[C@H]1C(=O)O [AMOXICILLIN],–,–,> 32,–,–,–,–,–,–,–,–,0.25,0.5,–,> 32,32,> 32
CCC(C)CCC(=O)N[C@H](CC(N)=O)C(=O)N[C@@H](Cc1ccc(Br)cc1)C(=O)N[C@H](Cc1c[nH]c2ccccc12)C(=O)N[C@H](CCCN)C(=O)N[C@@H](CCCN)C(=O)NCC(=O)N[C@H](CCCN)C(=O)N[C@@H](Cc1c[nH]c2ccccc12)C(=O)N[C@@H]1C(=O)N[C@@H]([C@@H](C)CC)C(=O)NCC(=O)N[C@@H](CO)C(=O)O[C@@H]1C (some centres not stated),–,–,> 32,> 32,> 32,> 32,> 32,> 32,–,32,> 32,> 32,> 32,> 32,–,–,–
CN[C@H](CC(C)C)C(=O)N[C@H]1C(=O)N[C@@H](CC(N)=O)C(=O)N[C@H]2C(=O)N[C@H]3C(=O)N[C@H](C(=O)N[C@H](C(=O)O)c4cc(O)cc(O)c4-c4cc3ccc4O)[C@H](O)c3ccc(c(Cl)c3)Oc3cc2cc(c3O[C@@H]2O[C@H](CO)[C@@H](O)[C@H](O)[C@H]2O[C@H]2C[C@](C)(N)[C@H](O)[C@H](C)O2)Oc2ccc(cc2Cl)[C@H]1O [VANCOMYCIN],–,–,–,–,–,–,–,–,–,–,–,–,32,–,–,–,–
CCC(C)CCC(=O)N[C@H](CC(N)=O)C(=O)N[C@H](C(=O)N[C@H](Cc1c[nH]c2ccccc12)C(=O)N[C@H](CCCN)C(=O)N[C@@H](CCCN)C(=O)NCC(=O)N[C@H](CCCN)C(=O)N[C@@H](Cc1c[nH]c2ccccc12)C(=O)N[C@@H]1C(=O)N[C@@H]([C@@H](C)CC)C(=O)NCC(=O)N[C@@H](CO)C(=O)O[C@@H]1C)C(c1ccccc1)c1ccccc1 (some centres not stated),–,–,> 32,> 32,32,32,> 32,16,–,32,> 32,> 32,> 32,32,–,–,–
Cc1onc(-c2ccccc2)c1C(=O)N[C@@H]1C(=O)N2[C@@H]1SC(C)(C)[C@@H]2C(=O)O [OXACILLIN],–,–,128,–,–,–,–,–,–,–,–,–,–,–,64,64,64
POLYMYXIN B [listing 2 of 2 here],–,–,–,32,0.5,0.5,1,4,–,0.125,0.25,–,–,0.5,–,–,–
CCC(C)CCC(=O)N[C@H](CC(N)=O)C(=O)N[C@@H](Cc1ccccc1)C(=O)N[C@H](Cc1c[nH]c2ccccc12)C(=O)N[C@H](CCCN)C(=O)N[C@@H](CCCN)C(=O)NCC(=O)N[C@H](CCCN)C(=O)N[C@@H](Cc1c[nH]c2ccccc12)C(=O)N[C@@H]1C(=O)N[C@@H]([C@@H](C)CC)C(=O)NCC(=O)N[C@@H](CO)C(=O)O[C@@H]1C (some centres not stated),–,–,> 32,> 32,> 32,> 32,> 32,> 32,–,> 32,> 32,> 32,> 32,> 32,–,–,–
CCC(C)CCC(=O)N[C@H](CC(N)=O)C(=O)N[C@H](CCCCN)C(=O)N[C@H](Cc1c[nH]c2ccccc12)C(=O)N[C@H](CCCN)C(=O)N[C@@H](CCCN)C(=O)NCC(=O)N[C@H](CCCN)C(=O)N[C@@H](Cc1c[nH]c2ccccc12)C(=O)N[C@@H]1C(=O)N[C@@H]([C@@H](C)CC)C(=O)NCC(=O)N[C@@H](CO)C(=O)O[C@@H]1C (some centres not stated),–,–,> 32,> 32,> 32,> 32,16,> 32,–,> 32,> 32,> 32,> 32,> 32,–,–,–
CCC(C)CCC(=O)N[C@H](CC(N)=O)C(=O)N[C@H](Cc1c[nH]c2ccccc12)C(=O)N[C@H](Cc1c[nH]c2ccccc12)C(=O)N[C@H](CCCN)C(=O)N[C@@H](CCCN)C(=O)NCC(=O)N[C@H](CCCN)C(=O)N[C@@H](Cc1c[nH]c2ccccc12)C(=O)N[C@@H]1C(=O)N[C@@H]([C@@H](C)CC)C(=O)NCC(=O)N[C@@H](CO)C(=O)O[C@@H]1C (some centres not stated) ({Hexanoyl(4ξ-Me)}-[dN][dW][dW][dOrn][Orn]G[dOrn]WTIGS; ester 9-C),–,–,> 32,> 32,> 32,16,32,32,–,32,32,> 32,> 32,32,–,–,–
